In patent US9796704B2, “Substituted quinazolines as receptor-type kinase inhibitors” (Symphony Evolution, Inc., priority 2002, dated 2017):

Key:
KDR = KDR (Homo sapiens (Human), UniProt P35968); test: KDR kinase inhibition, luciferase-coupled chemiluminescent assay (LCCA); settings: read-out: KDR IC50
Experimental: (§1) Kinase activity and compound inhibition are investigated using one or more of the three assay formats described below. The ATP concentrations are selected near its Michaelis-Menten constant (KM) for each individual kinase. Dose-response experiments are performed at ten different inhibitor concentrations in a 384-well plate format. […] Typically H is close to unity.
(§2) In the LCCA assays, kinase activity is measured by the ATP consumption that is accurately measured by luciferase-coupled chemiluminescence. Greiner 384-well white clear bottom medium binding plates are used for LCCA. Briefly the kinase reaction is initiated by mixing compounds, ATP and kinases in a 20 μL volume. At the end of the kinase reaction, a 20 μL luciferase-luciferin mix is added and the chemiluminescent signal is read on a Wallac Victor^2 reader.

EphA2 = EphA2 (Homo sapiens (Human), UniProt P29317); test: EphA2 kinase inhibition, luciferase-coupled chemiluminescent assay (LCCA); settings: read-out: EphA2 IC50
Experimental: as §1, §2

EphB4 = EphB4 (Homo sapiens (Human), UniProt P54760); test: EphB4 kinase inhibition, 33P phosphoryl transfer assay (radiometric); assay type: biochemical
EGFR = EGFR (Homo sapiens (Human), UniProt P00533); test: EGFR kinase inhibition, luciferase-coupled chemiluminescent assay (LCCA); settings: read-out: EGFR IC50
Experimental: as §1, §2

Sequence of KDR (P35968 807-1356): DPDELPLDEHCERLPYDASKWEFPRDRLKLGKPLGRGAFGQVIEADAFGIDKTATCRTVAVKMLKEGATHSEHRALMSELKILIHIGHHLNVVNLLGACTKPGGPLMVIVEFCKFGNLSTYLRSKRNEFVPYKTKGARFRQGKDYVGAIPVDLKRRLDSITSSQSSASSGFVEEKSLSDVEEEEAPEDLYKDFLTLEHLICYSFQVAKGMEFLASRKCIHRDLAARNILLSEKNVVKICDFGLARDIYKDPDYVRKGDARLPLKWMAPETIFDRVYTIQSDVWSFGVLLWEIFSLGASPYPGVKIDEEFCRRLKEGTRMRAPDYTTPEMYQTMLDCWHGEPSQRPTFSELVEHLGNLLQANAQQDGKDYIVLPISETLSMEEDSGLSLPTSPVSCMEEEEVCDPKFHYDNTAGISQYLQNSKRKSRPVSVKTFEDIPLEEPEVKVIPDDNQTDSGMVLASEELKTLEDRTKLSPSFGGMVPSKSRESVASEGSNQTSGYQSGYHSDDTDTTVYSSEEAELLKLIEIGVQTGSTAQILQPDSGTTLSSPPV
Sequence of EphB4 (P54760 605-890): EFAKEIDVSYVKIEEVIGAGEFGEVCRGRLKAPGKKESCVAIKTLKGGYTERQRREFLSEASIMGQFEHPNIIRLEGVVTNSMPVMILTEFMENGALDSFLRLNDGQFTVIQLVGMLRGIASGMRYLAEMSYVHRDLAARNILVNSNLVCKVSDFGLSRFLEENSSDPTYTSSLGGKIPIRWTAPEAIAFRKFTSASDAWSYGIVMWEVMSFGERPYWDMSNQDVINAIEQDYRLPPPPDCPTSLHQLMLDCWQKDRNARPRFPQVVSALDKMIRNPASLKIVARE
Sequence of EphA2 (P29317 598-890): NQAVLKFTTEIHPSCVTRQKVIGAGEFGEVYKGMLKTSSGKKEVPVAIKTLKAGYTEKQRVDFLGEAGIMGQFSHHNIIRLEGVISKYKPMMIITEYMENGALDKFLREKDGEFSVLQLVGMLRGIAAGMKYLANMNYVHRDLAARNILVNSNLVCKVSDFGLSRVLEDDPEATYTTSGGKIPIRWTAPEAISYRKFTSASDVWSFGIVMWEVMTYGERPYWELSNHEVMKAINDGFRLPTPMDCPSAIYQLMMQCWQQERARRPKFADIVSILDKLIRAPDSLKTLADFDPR

Row | IC50 (KDR) | IC50 (EphA2) | IC50 (EphB4) | IC50 (EGFR) | Compound
1 | < 50 nM | 50 to 1000 nM | 50 to 1000 nM | < 50 nM | COc1cc2c(Nc3ccc(Br)c(Cl)c3)ncnc2cc1O[C@H]1CO[C@H]2[C@@H]1OC[C@@H]2OC(F)F [Example 70, 1,4:3,6-dianhydro-2-O-[4-[(4-bromo-3-chlorophenyl)amino]-6-(methyloxy)quinazolin-7-yl]-5-O-(difluoromethyl)-L-iditol]
2 | < 50 nM | < 50 nM | < 50 nM | < 50 nM | COc1cc2c(Nc3ccc(Br)c(Cl)c3)ncnc2cc1O[C@H]1CO[C@@H]2[C@@H](OC)[C@H](OC)O[C@@H]21 [Example 79, methyl 3,6-anhydro-5-O-[4-[(4-bromo-3-chlorophenyl)amino]-6-(methyloxy)quinazolin-7-yl]-2-O-methyl-alpha-L-idofuranoside]
3 | < 50 nM | < 50 nM |  | < 50 nM | COc1cc2c(Nc3ccc(F)c(C(F)(F)F)c3)ncnc2cc1O[C@@H]1CO[C@@H]2[C@H]1OC[C@H]2F [Example 89, 1,4:3,6-dianhydro-2-deoxy-2-fluoro-5-O-[4-{[4-fluoro-3-(trifluoromethyl)phenyl]amino}-6-(methyloxy)quinazolin-7-yl]-D-iditol]
4 | < 50 nM | < 50 nM | < 50 nM | < 50 nM | COc1cc2c(Nc3cc(F)cc(F)c3)ncnc2cc1O[C@@H]1CO[C@@H]2[C@H]1OC[C@H]2F [Example 94, 1,4:3,6-dianhydro-2-deoxy-5-O-[4-[(3,5-difluorophenyl)amino]-6-(methyloxy)quinazolin-7-yl]-2-fluoro-D-iditol]
5 | < 50 nM | < 50 nM | < 50 nM | < 50 nM | COc1cc2c(Nc3ccc(Br)cc3Cl)ncnc2cc1O[C@@H]1CO[C@@H]2[C@H]1OC[C@H]2F [Example 96, 1,4:3,6-dianhydro-5-O-[4-[(4-bromo-2-chlorophenyl)amino]-6-(methyloxy)quinazolin-7-yl]-2-deoxy-2-fluoro-D-iditol]
6 | < 50 nM |  | < 50 nM | < 50 nM | COc1cc2c(Nc3ccc(Cl)c(Cl)c3F)ncnc2cc1O[C@@H]1CO[C@@H]2[C@H]1OC[C@H]2F [Example 97, 1,4:3,6-dianhydro-2-deoxy-5-O-[4-[(3,4-dichloro-2-fluorophenyl)amino]-6-(methyloxy)quinazolin-7-yl]-2-fluoro-D-iditol]
7 | < 50 nM | < 50 nM | < 50 nM | < 50 nM | COc1cc2c(Nc3cc(Cl)c(Br)cc3F)ncnc2cc1O[C@@H]1CO[C@@H]2[C@H]1OC[C@H]2F [Example 98, 1,4:3,6-dianhydro-5-O-[4-[(4-bromo-5-chloro-2-fluorophenyl)amino]-6-(methyloxy)quinazolin-7-yl]-2-deoxy-2-fluoro-D-iditol]
8 | < 50 nM | < 50 nM | < 50 nM | < 50 nM | COc1cc2c(Nc3cc(F)c(F)cc3F)ncnc2cc1O[C@@H]1CO[C@@H]2[C@H]1OC[C@H]2F [Example 99, 1,4:3,6-dianhydro-2-deoxy-2-fluoro-5-O-{6-(methyloxy)-4-[(2,4,5-trifluorophenyl)amino]quinazolin-7-yl}-D-iditol]
9 | < 50 nM |  | < 50 nM | < 50 nM | COc1cc2c(Nc3cc(F)c(Br)c(Cl)c3)ncnc2cc1O[C@@H]1CO[C@@H]2[C@H]1OC[C@H]2F [Example 104, 1,4:3,6-dianhydro-5-O-[4-[(4-bromo-3-chloro-5-fluorophenyl)amino]-6-(methyloxy)quinazolin-7-yl]-2-deoxy-2-fluoro-D-iditol]
10 | < 50 nM | < 50 nM | < 50 nM | < 50 nM | COc1cc2c(Nc3ccc(Cl)c(Cl)c3Cl)ncnc2cc1O[C@@H]1CO[C@@H]2[C@H]1OC[C@H]2F [Example 106, 1,4:3,6-dianhydro-2-deoxy-2-fluoro-5-O-{6-(methyloxy)-4-[(2,3,4-trichlorophenyl)amino]quinazolin-7-yl}-D-iditol]
11 | < 50 nM | < 50 nM | < 50 nM | < 50 nM | COc1cc2c(Nc3cc(Cl)c(Cl)c(Cl)c3)ncnc2cc1O[C@@H]1CO[C@@H]2[C@H]1OC[C@H]2F [Example 107, 1,4:3,6-dianhydro-2-deoxy-2-fluoro-5-O-{6-(methyloxy)-4-[(3,4,5-trichlorophenyl)amino]quinazolin-7-yl}-D-iditol]
12 | < 50 nM | < 50 nM | < 50 nM | < 50 nM | COc1cc2c(Nc3ccc(Br)cc3F)ncnc2cc1O[C@@H]1CO[C@@H]2[C@H]1OC[C@H]2F [Example 108, 1,4:3,6-dianhydro-5-O-[4-[(4-bromo-2-fluorophenyl)amino]-6-(methyloxy)quinazolin-7-yl]-2-deoxy-2-fluoro-D-iditol]
13 | < 50 nM |  |  | < 50 nM | COc1cc2c(Nc3c(F)cc(F)cc3Br)ncnc2cc1O[C@@H]1CO[C@@H]2[C@H]1OC[C@H]2F [Example 120, 1,4:3,6-dianhydro-5-O-[4-[(2-bromo-4,6-difluorophenyl)amino]-6-(methyloxy)quinazolin-7-yl]-2-deoxy-2-fluoro-D-iditol]
14 | < 50 nM |  |  | < 50 nM | COc1cc2c(Nc3cc(C(F)(F)F)ccc3Cl)ncnc2cc1O[C@@H]1CO[C@@H]2[C@H]1OC[C@H]2F [Example 122, 1,4:3,6-dianhydro-5-O-[4-{[2-chloro-5-(trifluoromethyl)phenyl]amino}-6-(methyloxy)quinazolin-7-yl]-2-deoxy-2-fluoro-D-iditol]
15 | < 50 nM | < 50 nM | < 50 nM | < 50 nM | COc1cc2c(Nc3ccc(C(F)(F)F)cc3Br)ncnc2cc1O[C@@H]1CO[C@@H]2[C@H]1OC[C@H]2F [Example 125, 1,4:3,6-dianhydro-5-O-[4-{[2-bromo-4-(trifluoromethyl)phenyl]amino}-6-(methyloxy)quinazolin-7-yl]-2-deoxy-2-fluoro-D-iditol]
16 | < 50 nM |  |  | < 50 nM | COc1ccc(OC)c(Nc2ncnc3cc(O[C@@H]4CO[C@@H]5[C@H]4OC[C@H]5F)c(OC)cc23)c1 [Example 134, 1,4:3,6-dianhydro-5-O-[4-{[2,5-bis(methyloxy)phenyl]amino}-6-(methyloxy)quinazolin-7-yl]-2-deoxy-2-fluoro-D-iditol]
17 | < 50 nM |  | < 50 nM | < 50 nM | COc1cc2c(Nc3ccc(Cl)c(Cl)c3)ncnc2cc1OCc1noc(CN(C)C)n1 [Example 138, N-(3,4-dichlorophenyl)-7-[({5-[(dimethylamino)methyl]-1,2,4-oxadiazol-3-yl}methyl)oxy]-6-(methyloxy)quinazolin-4-amine]
18 | < 50 nM |  | < 50 nM | < 50 nM | COc1cc2c(Nc3ccc(Cl)c(Cl)c3)ncnc2cc1OCC1CN(C(=O)OC(C)(C)C)CCO1 (stereo not drawn) [Example 148, 1,1-dimethylethyl 2-({[4-[(3,4-dichlorophenyl)amino]-6-(methyloxy)quinazolin-7-yl]oxy}methyl)morpholine-4-carboxylate]
19 | < 50 nM |  | < 50 nM | < 50 nM | COc1cc2c(Nc3ccc(Cl)c(Cl)c3)ncnc2cc1OCC1CN(C)CCCO1 (stereo not drawn) [Example 155, N-(3,4-dichlorophenyl)-7-{[(4-methyl-1,4-oxazepan-2-yl)methyl]oxy}-6-(methyloxy)quinazolin-4-amine]
20 | < 50 nM |  |  | < 50 nM | COc1cc2c(Nc3ccc(Cl)c(Cl)c3)ncnc2cc1OCc1noc(C(C)(C)C)n1 [Example 157, N-(3,4-dichlorophenyl)-7-({[5-(1,1-dimethylethyl)-1,2,4-oxadiazol-3-yl]methyl}oxy)-6-(methyloxy)quinazolin-4-amine]
21 | < 50 nM |  | < 50 nM | < 50 nM | COc1cc2c(Nc3ccc(Cl)c(Cl)c3)ncnc2cc1OCc1noc(C)c1-c1ccccc1 [Example 161, N-(3,4-dichlorophenyl)-6-(methyloxy)-7-{[(5-methyl-4-phenylisoxazol-3-yl)methyl]oxy}quinazolin-4-amine]
22 | < 50 nM |  |  | < 50 nM | COc1cc2c(Nc3ccc(Cl)c(Cl)c3)ncnc2cc1OCc1noc(-c2cccc(C(F)(F)F)c2)n1 [Example 166, N-(3,4-dichlorophenyl)-6-(methyloxy)-7-[({5-[3-(trifluoromethyl)phenyl]-1,2,4-oxadiazol-3-yl}methyl)oxy]quinazolin-4-amine]
23 | < 50 nM | 50 to 1000 nM | < 50 nM | < 50 nM | COc1cc2c(Nc3ccc(Cl)c(Cl)c3)ncnc2cc1OCc1noc(C2CCN(C(=O)OC(C)(C)C)CC2)n1 [Example 197, 1,1-dimethylethyl 4-[3-({[4-[(3,4-dichlorophenyl)amino]-6-(methyloxy)quinazolin-7-yl]oxy}methyl)-1,2,4-oxadiazol-5-yl]piperidine-1-carboxylate]

Row | Compound | IC50 (KDR) | IC50 (EphA2) | IC50 (EphB4) | IC50 (EGFR)
24 | COc1cc2c(Nc3ccc(Cl)c(Cl)c3)ncnc2cc1OCc1nc(CN2CCN(C)CC2)no1 [Example 140, N-(3,4-dichlorophenyl)-6-(methyloxy)-7-[({3-[(4-methylpiperazin-1-yl)methyl]-1,2,4-oxadiazol-5-yl}methyl)oxy]quinazolin-4-amine] | < 50 nM |  | < 50 nM | < 50 nM
25 | N-(3,4-dichlorophenyl)-6-(methyloxy)-7-{[(5-piperidin-2-yl-1,2,4-oxadiazol-3-yl)methyl]oxy}quinazolin-4-amine hydrochloride [Example 31] | < 50 nM |  | < 50 nM | < 50 nM
